The nature of series [1]: Tablet compression and tensile strength (diametrical fracture stress). It counts as physicochemical. To be noted: tensile strength increased by over 30% by 3% compound at compacting force 3000N. The text has this:
For the purpose of this invention, the Cohesive Effect on the particulate material of a detergent matrix is characterised by the force required to break a tablet based on the examined detergent matrix pressed under controlled compression conditions. […] Means to assess tablet strength (also refer to diametrical fracture stress) are given in Pharmaceutical dosage forms: tablets volume 1 Ed. H. A. Lieberman et al, published in 1989.
The temperature of the addition is between 10 and 80 C., more pref. between 10 and 40 C.
For a cylindrical tablet, the tensile strength corresponds to the diametrical fracture stress (DFS) which is a way to express the strength of a tablet, and is determined by the following equation: [formula]
Where F is the maximum force (Newton) to cause tensile failure (fracture) measured by a VK 200 tablet hardness tester supplied by Van Kell industries, Inc. D is the diameter of the tablet, and t the thickness of the tablet.
iii) Tablets were then made the following way: 50 g of the mixture was introduced into a mould of circular shape with a diameter of 5.5 cm and compressed to give a tablet tensile strength (or diametrical fracture stress) of 15 kPa. The force required to obtain a tablet tensile strength of 15 kPa was 2400 N. The tablet height was 1.94 cm.

A short description of series [2]: Conductivity test defining a highly soluble compound. It counts as physicochemical. To be noted: conductivity reaches 80% of maximum in less than 10 seconds.
Method: A solution is prepared as follows comprising de-ionised water as well as 20 grams per liter of a specific compound:
1—20 g of the specific compound is placed in a Sotax Beaker. This beaker is placed in a constant temperature bath set at 10° C. A stirrer with a marine propeller is placed in the beaker so that the bottom of the stirrer is at 5 mm above the bottom of the Sotax beaker. The mixer is set at a rotation speed of 200 turns per minute.
2—980 g of the de-ionised water is introduced into the Sotax beaker.
3—10 s after the water introduction, the conductivity of the solution is measured, using a conductivity meter.
4—Step 3 is repeated after 20, 30, 40, 50, 1 min, 2 min, 5 min and 10 min after step 2.
5—The measurement taken at 10 min is used as the plateau value or maximum value.

Here are results for one substance from patent US6559115B1, “Detergent tablet with high mechanical and dissolution characteristics” (The Procter & Gamble Company, priority 1998, dated 2003).

For “sodium di isoalkylbenzene sulphonate [Compounds of Example 1]”, the “Cohesive effect on the particulate material” value in series [1] was “having a cohesive effect”. Moreover, the “Highly soluble compound according to the invention” value in series [2] is listed as “highly soluble”.
